Reference: US7504384B2 (priority 2000, dated 2009)
“And” between values parts separate entries of the source, which are not always exact repeats. Equal entries are not always repeated.

Assays:
[1] = tested on: nitric oxide (NO) production by BAL macrophages; type: in vivo, Brown Norway rats; conditions: compared to asthmatic and naïve rats, p<0.001; macrophages cultured without further treatment
[2] = tested on: Influenza A (H1N1 strain) virus; type: cell-based, Influenza type A, A/New Caledonia/20/99 (H1N1)

Substance | NO level, BAL macrophages [1] | SI (IC50/EC50) [2] | EC50 ([2]; high concentration, Visual Observation Assay, Influenza A (H1N1 strain)) [µg/mL]
dipalmitoyl-PE conjugated to HA [Compound XXII] | reduced | – | –
dipalmitoyl-phosphatidyl-ethanolamine conjugated to heparin [Compound XXIV] | – | 20 and 11 | 400
